# Test results from patent US9745272B2, “Quinazoline-2,4(1 H,3H)-dione derivatives” (Hydra Biosciences, Inc., priority 2014, dated 2017).
# Experiments:
# TRPC5 channel [1] = molecular target: T1, TRPC5 channel (Homo sapiens, UniProt Q9UL62); test: High throughput screening assay: Fluo4 cell-based fluorescence assay of intracellular Ca2+ rise in HEK293/TREx cells inducibly expressing TRPC5; details: Table 2, Ca2+ influx, 14 mM Ca2+
# T1 construct: expressed in transfected cells; host or cells: HEK293/TREx (Invitrogen), stably transfected, induced with tetracycline
# T1 sequence (Q9UL62 1-973): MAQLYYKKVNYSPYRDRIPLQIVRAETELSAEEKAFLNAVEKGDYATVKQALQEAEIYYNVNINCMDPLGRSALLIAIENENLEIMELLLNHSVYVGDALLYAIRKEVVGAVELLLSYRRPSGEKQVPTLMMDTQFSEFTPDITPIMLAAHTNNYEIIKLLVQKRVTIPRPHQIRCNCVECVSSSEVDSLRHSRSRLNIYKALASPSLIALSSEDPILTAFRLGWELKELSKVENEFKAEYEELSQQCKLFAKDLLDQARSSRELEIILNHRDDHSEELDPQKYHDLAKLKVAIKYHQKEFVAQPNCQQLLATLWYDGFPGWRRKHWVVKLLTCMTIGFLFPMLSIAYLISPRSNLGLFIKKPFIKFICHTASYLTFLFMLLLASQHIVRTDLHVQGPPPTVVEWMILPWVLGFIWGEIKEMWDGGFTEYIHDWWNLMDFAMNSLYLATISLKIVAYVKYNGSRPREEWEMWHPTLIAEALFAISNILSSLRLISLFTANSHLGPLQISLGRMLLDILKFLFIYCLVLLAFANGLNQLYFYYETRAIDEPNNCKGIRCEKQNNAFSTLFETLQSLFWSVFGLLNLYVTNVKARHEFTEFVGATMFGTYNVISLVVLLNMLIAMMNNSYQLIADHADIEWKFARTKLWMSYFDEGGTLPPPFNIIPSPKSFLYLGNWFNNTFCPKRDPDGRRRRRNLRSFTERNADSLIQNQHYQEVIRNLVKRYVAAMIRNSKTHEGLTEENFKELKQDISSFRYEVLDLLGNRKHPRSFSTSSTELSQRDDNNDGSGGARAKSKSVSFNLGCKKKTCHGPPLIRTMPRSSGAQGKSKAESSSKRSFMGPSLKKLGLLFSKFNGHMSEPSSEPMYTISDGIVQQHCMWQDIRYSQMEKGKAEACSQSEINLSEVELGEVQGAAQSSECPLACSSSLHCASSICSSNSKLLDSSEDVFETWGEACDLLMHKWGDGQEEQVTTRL
# Source text: The assay depended on detection of the rise in intracellular Ca2+ concentration ([Ca2+]i) following channel activation in cells inducibly expressing the TRPC5 channel. Ca2+ rise was quantified with the use of fluorescent Ca2+ indicators that were loaded into cells and thereafter indicated the [Ca2+]i Ca2+ influx followed activation of the TRPC5 channel. Compounds inhibiting the [Ca2+]i rise were considered hits for further investigation.
# The commercially available HEK293/TREx line (Invitrogen) was stably transfected with a TRPC5 construct and screened by conventional calcium imaging to find clones with TRPC5 expression following stimulation with 1 μg/ml tetracycline. These cells were maintained in the growth medium recommended by the manufacturer supplemented with 100 μg/ml hygromycin to promote retention of the TRPC5 construct. After growing to near confluency, cells were plated at a density of ˜35,000 cells/well in 384 well CellBind plates (Corning) in the presence of 1 μg/ml tetracycline, and allowed to grow for 20-30 hrs. A nearly confluent monolayer resulted. Cells were then loaded with Ca2+ dye: Fura-2/AM or Fluo4/AM was added to the wells to a final concentration of 4 μM or 0.5 μM, respectively, and incubated for 80 min or 60 min, respectively, at room temperature. Supernatant was then removed from the cells by inverting plates with a sharp flick, and 25 μl Hank's Balanced Salt Solution (HBSS; 0.185 g/l D-glucose, 0.9767 g/l MgS04 (anhydrous), 0.4 g/l KCl, 0.06 g/l KH2PO4 (anhydrous), 0.35 g/l NaHCO3, 8.0 g/l NaCl, and 0.04788 g/l Na2HPO4 (anhydrous); pH 7.4) was then added to each well. Following ˜0.5 hour for recovery from loading, cells were assayed using the Hamamatsu FDSS 6000 system, which permitted illumination alternately at 340 nm and 380 nm for Fura-2 experiments, or at 485 nm for Fluo4 experiments. Frames were acquired at a rate of 0.2 Hz. During the assay, the plates were continuously vortexed, with pipette mixing of wells following addition of each reagent. For the screening assay, 26 μl of a diluted compound stock (at 50 μM) was added to each well for 2 minutes following the collection of a short (4 frame) baseline. 13 μl 62 mM high-Ca2+ Ringer solution (4.17 ml of normal ringer (with 2 mM Ca2+) plus 5.83 ml of isotonic calcium ringer (105 mM Ca2+; in this ringer all sodium has been replaced with calcium)) was then added to each well, achieving a final concentration of 14 mM Ca2+ and 10 μM test compound. Data was collected for ˜3 minutes following addition of high Ca2+ Ringer, where the fluorescent intensity (for Fluo4) and the F340/F380 ratio (for Fura-2) were proportional to the [Ca2+]i Negative controls consisted of HEK293/TREx TRPC5 cells exposed to high Ca2+ solution, but no compound. Positive control conditions consisted of addition of 2-APB, a promiscuous blocker of TRPC5 and other channels, to columns 23 and 24 of the plates, to a final concentration of 200 μM. These controls defined a screening window, and “hits” were defined as those compounds inhibiting the fluorescence response by at least 40%. IC50 values were determined for compounds defined as “hits.” The Fluo4 cell-based fluorescence assay was used to determine the intracellular Ca2+ concentration in the presence of varying drug concentration. Final concentrations of compounds tested were 20 μM, 6.667 μM, 2.222 μM, 0.741 μM, 0.247 μM, 0.082 μM, and 0.027 μM. Compounds were tested in triplicate at all concentrations. Standard software was used to fit IC50 curves. […]
# TRPC5 channel [2] = molecular target: T1, TRPC5 channel; test: Whole-cell patch clamp experiments, TRPC5 current activated by LaCl3 in TRPC5-expressing HEK293 TREx cells; type: cell-based; details: Table 3, block of TRPC5 current in continued presence of LaCl3, IC50 estimated
# Source text: Patch clamp experiments permit the detection of currents through the TRPC5 channel in the cell line described above. In normal whole-cell patch clamp recordings, a glass electrode is brought into contact with a single cell and a high-resistance (gigaohm) seal is established with the cell membrane. The membrane is then ruptured to achieve the whole-cell configuration, permitting control of the voltage of the cell membrane and measurement of currents flowing across the membrane using the amplifier attached to the electrode and resulting in the replacement of cytoplasm with the pipette solution. A perfusion system permits control of the extracellular solution, including the addition of blockers and activators of the current. The current can be activated by including 1.4 μM free Ca^2+ in the pipette (intracellular) solution, and 80 μM LaCl3 in the extracellular solution.
# TRPC5 cells were induced 20-48 hours, removed from growth plates, and replated at low density (to attain good single-cell physical separation) on glass coverslips for measurement. In some cases, cells were grown in low density overnight on glass coverslips. Patch clamp recordings were made in the whole-cell mode with a holding potential of −40 mV. Every 5 seconds, a voltage ramp was applied from −120 to +100 mV, 400 ms in duration. Currents elicited were quantified at −80 mV and +80 mV. The internal solution consisted of 140 mM cesium aspartate, 10 mM HEDTA, 2 mM CaCl2, 2.27 mM MgCl2 and 10 mM HEPES, pH 7.2, with 1,400 nM calculated free Ca^2+. The external solution consisted of 150 mM NaCl, 4.5 mM KCl, 1 mM MgCl2, 2 mM CaCl2, 10 mM HEPES, 10 mM glucose, 1 mM EGTA, pH 7.4. Upon addition of LaCl3, TRPC5 current was induced only in TRPC5-expressing cells and not in parental HEK293 TREx cells. Removal of the LaCl3 stimulus causes most of the current to go away. Potential blockers were tested for ability to block both inward and outward currents in the continued presence of LaCl3.
# IC50 of a compound of Formula (I) was estimated by testing the compound at 5 μM and 500 nM. […] IC50 for a compound of Formula (I) between 500 nM and 5 μM was similarly estimated.
IC50 (TRPC5 channel [1]),IC50 (TRPC5 channel [2]),SMILES
27 nM,,COc1ccc2c(c1Cc1ccccc1)c(=O)n(CCCO)c(=O)n2C [Compound 2]
395 nM,2.1 nM,"Cn1c(=O)n(CCCO)c(=O)c2c(Cc3ccccc3)c(Oc3cccc(Cl)c3)ccc21 [Compound 3, 5-benzyl-6-(3-chlorophenoxy)-3-(3-hydroxypropyl)-1-methylquinazoline-2,4(1H,3H)-dione]"
,1.52 nM,"Cn1c(=O)n(CCCO)c(=O)c2c(Cc3ccc(Cl)cc3)c(Oc3cccc(OC(F)(F)F)c3)ccc21 [Compound 4, 5-(4-chlorobenzyl)-3-(3-hydroxypropyl)-1-methyl-6-(3-(trifluoromethoxy)phenoxy)quinazoline-2,4(1H,3H)-dione]"
61 nM,1.77 nM,"Cn1c(=O)n(CCCO)c(=O)c2c(Cc3ccc(F)cc3)c(Oc3cccc(OC(F)(F)F)c3)ccc21 [Compound 6, 5-(4-fluorobenzyl)-3-(3-hydroxypropyl)-1-methyl-6-(3-(trifluoromethoxy)phenoxy)quinazoline-2,4(1H,3H)-dione]"
1.71 nM,2 nM,"CCCOc1ccc2c(c1Cc1ccc(F)cc1)c(=O)n(CCCO)c(=O)n2C [Compound 8, 5-(4-fluorobenzyl)-3-(3-hydroxypropyl)-1-methyl-6-propoxyquinazoline-2,4(1H,3H)-dione]"
,4.3 nM,"CCCOc1ccc2c(c1Cc1ccc(Cl)cc1)c(=O)n(CCCO)c(=O)n2C [Compound 10, 5-(4-chlorobenzyl)-3-(3-hydroxypropyl)-1-methyl-6-propoxyquinazoline-2,4(1H,3H)-dione]"
,4.2 nM,"CCOc1ccc2c(c1Cc1ccc(Cl)cc1)c(=O)n(CCCO)c(=O)n2C [Compound 11, 5-(4-chlorobenzyl)-6-ethoxy-3-(3-hydroxypropyl)-1-methylquinazoline-2,4(1H,3H)-dione]"
31.2 nM,,"Cn1c(=O)n(CCCO)c(=O)c2c(Cc3ccccc3)c(-c3cccc(OC(F)(F)F)c3)ccc21 [Compound 13, 5-benzyl-3-(3-hydroxypropyl)-1-methyl-6-(3-(trifluoromethoxy)phenyl)quinazoline-2,4(1H,3H)-dione]"
